Measurements from patent US9499550B2 (BRISTOL-MYERS SQUIBB COMPANY, priority 2012, dated 2016).
pEC50: −log10 of the molar value. Where two headings read alike, the source gives them in different places.

Key:
[1] = test system: HCV genotype 1b (Con1) replicon in HUH-7 cells; test: HCV replicon luciferase reporter assay, genotype 1b; type: cell-based; details: Hepatitis C virus, Huh-7, 72 h, 3 days incubation
In short: (§1)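 Replicon inhibition for both genotypes was measured as Renilla luciferase signal (EnduRen, 7.5 μM final, 2 h) after 3-day, 37° C exposure of replicon-bearing HUH-7 cells in 4% FCS DMEM, 0.5% DMSO. The 1b construct carries S1179I; the 1a H77 construct carries P1496L and S2204I. Twenty-point, 3-fold dilutions were fitted four-parametrically for EC50, and CC50 was taken from multiplexed Cell Titer-Blue.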

[2] = test system: HCV genotype 1a (H77 strain) replicon in HUH-7 cells; test: HCV replicon luciferase reporter assay, genotype 1a; type: cell-based; details: Hepatitis C virus, Huh-7, 72 h, 3 days incubation
In short: as §1

[3] = HCV genotype 1b replicon luciferase, read-out: LE_1b (EC50, range)
[4] = HCV genotype 1a replicon luciferase, read-out: LE_1a (EC50, range)
[5] = HCV genotype 1b replicon luciferase, read-out: LE_1b (EC50)
[6] = HCV genotype 1a replicon luciferase, read-out: LE_1a (EC50)
[7] = HCV genotype 1b replicon luciferase assay, range class, read-out: LE_1b (EC50, range)
[8] = HCV genotype 1a replicon luciferase assay, range class, read-out: LE_1a (EC50, range)

Row | SMILES | pEC50 [1, 3] | pEC50 [2, 4] | pEC50 [1, 5] | pEC50 [2, 6] | pEC50 [1, 7] | pEC50 [2, 8]
1 | CC[C@@H]1C[C@H](C)CC/C=C\[C@@H]2C[C@@]2(C(=O)NS(=O)(=O)C2(C)CC2)NC(=O)[C@@H]2C[C@@H](Oc3ncc(OC)c4ccc(F)cc34)CN2C(=O)[C@H]1NC(=O)N1CCN(C)CC1 [Compound 4341, (2R,6S,7R,9R,13aS,14aR,16aS,Z)-7-ethyl-2-((7-fluoro-4-methoxyisoquinolin-1-yl)oxy)-9-methyl-N-((1-methylcyclopropyl)sulfonyl)-6-(4-methylpiperazine-1-carboxamido)-5,16-dioxo-1,2,3,5,6,7,8,9,10,11,13a,14,14a,15,16,16a-hexadecahydrocyclopropa[e]pyrrolo[1,2-a][1,4]diazacyclopentadecine-14a-carboxamide] | 8.30 to 9.00 | 8.30 to 9.00 |  |  |  | 
2 | C[C@H]1CC/C=C\[C@@H]2C[C@@]2(C(=O)NS(=O)(=O)C2(C)CC2)NC(=O)[C@@H]2C[C@@H](Oc3nccc4c5c(ccc34)OCCO5)CN2C(=O)[C@@H](NC(=O)O[C@H](C)C(F)(F)F)[C@H](C)C1 [Compound 5252, (R)-1,1,1-trifluoropropan-2-yl ((2R,6S,7R,9S,13aS,14aR,16aS,Z)-2-((2,3-dihydro-[1,4]dioxino[2,3-f]isoquinolin-7-yl)oxy)-7,9-dimethyl-14a-(((1-methylcyclopropyl)sulfonyl)carbamoyl)-5,16-dioxo-1,2,3,5,6,7,8,9,10,11,13a,14,14a,15,16,16a-hexadecahydrocyclopropa[e]pyrrolo[1,2-a][1,4]diazacyclopentadecin-6-yl)carbamate] | > 8.26 | 6.99 to 8.32 | 8.39 | 7.82 |  | 
3 | CC[C@@H]1C[C@H](C)CC/C=C\[C@@H]2C[C@@]2(C(=O)NS(=O)(=O)C2(C)CC2)NC(=O)[C@@H]2C[C@@H](Oc3nc4c(c5ccccc35)CCCO4)CN2C(=O)[C@H]1NC(=O)OC(C)(C)C(C)(F)F [Compound 6056, 3,3-difluoro-2-methylbutan-2-yl((2R,6S,7R,9R,13aS,14aR,16aS,Z)-2-((2,3-dihydro-1H-pyrano[2,3-c]isoquinolin-6-yl)oxy)-7-ethyl-9-methyl-14a-(((1-methylcyclopropyl)sulfonyl)carbamoyl)-5,16-dioxo-1,2,3,5,6,7,8,9,10,11,13a,14,14a,15,16,16a-hexadecahydrocyclopropa[e]pyrrolo[1,2-a][1,4]diazacyclopentadecin-6-yl)carbamate] | 9.30 to 10.00 | 8.30 to 9.00 |  |  |  | 
4 | COc1ccc2c(O[C@@H]3C[C@H]4C(=O)N[C@]5(C(=O)NS(=O)(=O)C6CC6)C[C@H]5/C=C\CC[C@@H](C)C[C@@H](C)[C@H](NC(=O)O[C@H](C)C(F)(F)F)C(=O)N4C3)nc(-c3ccc(OC(C)C)c(F)c3)cc2c1 [Compound 3074, (R)-1,1,1-trifluoropropan-2-yl ((2R,6S,7R,9R,13aS,14aR,16aS,Z)-14a-((cyclopropylsulfonyl)carbamoyl)-2-((3-(3-fluoro-4-isopropoxyphenyl)-6-methoxyisoquinolin-1-yl)oxy)-7,9-dimethyl-5,16-dioxo-1,2,3,5,6,7,8,9,10,11,13a,14,14a,15,16,16a-hexadecahydrocyclopropa[e]pyrrolo[1,2-a][1,4]diazacyclopentadecin-6-yl)carbamate] |  |  |  |  | > 8.26 | > 8.26
5 | C[C@H]1CC/C=C\[C@@H]2C[C@@]2(C(=O)NS(=O)(=O)C2(C)CC2)NC(=O)[C@@H]2C[C@@H](Oc3nccc4c5c(ccc34)OCCO5)CN2C(=O)[C@@H](NC(=O)OC(C)(C)C(F)(F)F)[C@H](C)C1 [Compound 5246, 1,1,1-trifluoro-2-methylpropan-2-yl((2R,6S,7R,9S,13aS,14aR,16aS,Z)-2-((2,3-dihydro-[1,4]dioxino[2,3-f]isoquinolin-7-yl)oxy)-7,9-dimethyl-14a-(((1-methylcyclopropyl)sulfonyl)carbamoyl)-5,16-dioxo-1,2,3,5,6,7,8,9,10,11,13a,14,14a,15,16,16a-hexadecahydrocyclopropa[e]pyrrolo[1,2-a][1,4]diazacyclopentadecin-6-yl)carbamate] | 6.99 to 8.32 | 6.99 to 8.32 |  |  |  | 
6 | [2H]C([2H])([2H])Oc1cnc(O[C@@H]2C[C@H]3C(=O)N[C@]4(C(=O)NS(=O)(=O)C5(C)CC5)C[C@H]4/C=C\CC[C@@H](C)C[C@@H](C)[C@H](NC(=O)OC(C([2H])([2H])[2H])(C([2H])([2H])[2H])C(F)(F)F)C(=O)N3C2)c2ccccc12 [Compound 5105, 1,1,1,3,3,3-hexadeutero-2-(trifluoromethyl)propan-2-yl((2R,6S,7R,9R,13aS,14aR,16aS,Z)-7,9-dimethyl-14a-(((1-methylcyclopropyl)sulfonyl)carbamoyl)-5,16-dioxo-2-((4-(trideuteromethoxy)isoquinolin-1-yl)oxy)-1,2,3,5,6,7,8,9,10,11,13a,14,14a,15,16,16a-hexadecahydrocyclopropa[e]pyrrolo[1,2-a][1,4]diazacyclopentadecin-6-yl)carbamate] | > 8.26 | > 8.26 |  |  |  | 
7 | [2H]C([2H])([2H])C(OC(=O)N[C@@H]1C(=O)N2C[C@H](Oc3nccc4c5c(ccc34)N(C)CCO5)C[C@H]2C(=O)N[C@]2(C(=O)NS(=O)(=O)C3CC3)C[C@H]2/C=C\CC[C@H](C)C[C@H]1C)(C([2H])([2H])[2H])C([2H])([2H])[2H] [Compound 5287, 1,1,1,3,3,3-hexadeutero-2-(trideuteromethyl)propan-2-yl((2R,6S,7R,9S,13aS,14aR,16aS,Z)-14a-((cyclopropylsulfonyl)carbamoyl)-7,9-dimethyl-2-((4-methyl-3,4-dihydro-2H-[1,4]oxazino[2,3-f]isoquinolin-7-yl)oxy)-5,16-dioxo-1,2,3,5,6,7,8,9,10,11,13a,14,14a,15,16,16a-hexadecahydrocyclopropa[e]pyrrolo[1,2-a][1,4]diazacyclopentadecin-6-yl)carbamate] | > 8.26 | > 8.26 |  |  |  | 
8 | COc1ccc2c(O[C@@H]3C[C@H]4C(=O)N[C@]5(C(=O)NS(=O)(=O)C6CC6)C[C@H]5/C=C\CC[C@@H](C)C[C@@H](C)[C@H](NC(=O)OC(C)(C)C)C(=O)N4C3)nccc2c1 [Compound 1205, tert-butyl ((2R,6S,7R,9R,13aS,14aR,16aS,Z)-14a-((cyclopropylsulfonyl)carbamoyl)-2-((6-methoxyisoquinolin-1-yl)oxy)-7,9-dimethyl-5,16-dioxo-1,2,3,5,6,7,8,9,10,11,13a,14,14a,15,16,16a-hexadecahydrocyclopropa[e]pyrrolo[1,2-a][1,4]diazacyclopentadecin-6-yl)carbamate] | 9.00 to 9.29 | 9.00 to 9.29 | 9.12 | 9.21 |  | 
9 | CCn1nc(O[C@@H]2C[C@H]3C(=O)N[C@]4(C(=O)NS(=O)(=O)C5(C)CC5)C[C@H]4/C=C\CC[C@@H](C)C[C@@H](C)[C@H](NC(=O)OC(C)(C)C)C(=O)N3C2)c2ccccc2c1=O [Compound 5065, tert-butyl ((2R,6S,7R,9R,13aS,14aR,16aS,Z)-2-((3-ethyl-4-oxo-3,4-dihydrophthalazin-1-yl)oxy)-7,9-dimethyl-14a-(((1-methylcyclopropyl)sulfonyl)carbamoyl)-5,16-dioxo-1,2,3,5,6,7,8,9,10,11,13a,14,14a,15,16,16a-hexadecahydrocyclopropa[e]pyrrolo[1,2-a][1,4]diazacyclopentadecin-6-yl)carbamate] | > 8.26 | 6.99 to 8.32 |  |  |  | 
10 | COc1cnc(O[C@@H]2C[C@H]3C(=O)N[C@]4(C(=O)NS(=O)(=O)C5(CF)CC5)C[C@H]4/C=C\CC[C@H](C)C[C@@H](C)[C@H](NC(=O)OC4(C)CCOCC4)C(=O)N3C2)c2ccccc12 [Compound 1051, 4-methyltetrahydro-2H-pyran-4-yl((2R,6S,7R,9S,13aS,14aR,16aS,Z)-14a-(((1-(fluoromethyl)cyclopropyl)sulfonyl)carbamoyl)-2-((4-methoxyisoquinolin-1-yl)oxy)-7,9-dimethyl-5,16-dioxo-1,2,3,5,6,7,8,9,10,11,13a,14,14a,15,16,16a-hexadecahydrocyclopropa[e]pyrrolo[1,2-a][1,4]diazacyclopentadecin-6-yl)carbamate] |  |  |  |  | 6.99 to 8.32 | 6.99 to 8.32
11 | COc1ccc2c(O[C@@H]3C[C@H]4C(=O)N[C@]5(C(=O)NS(=O)(=O)C6(C)CC6)C[C@H]5/C=C\CC[C@@H](C)C[C@@H](C)[C@H](NC(=O)OC(C)(C)C)C(=O)N4C3)cnnc2c1 [Compound 4319, tert-butyl ((2R,6S,7R,9R,13aS,14aR,16aS,Z)-2-((7-methoxycinnolin-4-yl)oxy)-7,9-dimethyl-14a-(((1-methylcyclopropyl)sulfonyl)carbamoyl)-5,16-dioxo-1,2,3,5,6,7,8,9,10,11,13a,14,14a,15,16,16a-hexadecahydrocyclopropa[e]pyrrolo[1,2-a][1,4]diazacyclopentadecin-6-yl)carbamate] | 6.21 to 7.46 | 7.46 to 8.30 |  |  |  | 
12 | CC[C@@H]1C[C@@H](C)CC/C=C\[C@@H]2C[C@@]2(C(=O)NS(=O)(=O)C2CC2)NC(=O)[C@@H]2C[C@@H](Oc3nccc4c(OC)cccc34)CN2C(=O)[C@H]1NC(=O)NC(C)(C)C [Compound 3029, (2R,6S,7R,9S,13aS,14aR,16aS,Z)-6-(3-(tert-butyl)ureido)-N-(cyclopropylsulfonyl)-7-ethyl-2-((5-methoxyisoquinolin-1-yl)oxy)-9-methyl-5,16-dioxo-1,2,3,5,6,7,8,9,10,11,13a,14,14a,15,16,16a-hexadecahydrocyclopropa[e]pyrrolo[1,2-a][1,4]diazacyclopentadecine-14a-carboxamide] |  |  |  |  | 6.99 to 8.32 | 6.99 to 8.32
